Entries after “also recorded” stand apart in the source; their conditions may differ.

Data set [1] concerns SIVMAC 251. The data set is described as follows: SIVMAC 251 infected rhesus macaques. Type of data set: in vivo. Particulars: end-stage disease. The text has this: Certain strains of SIV produce an AIDS-like illness in susceptible monkeys. Among them SIVMAC 251 induces disease in rhesus monkeys similar to AIDS in humans only with much greater rapidity.^174 Therapy with purified MA of 3 monkeys with end-stage disease infected 13-14 mos earlier was initiated when the animals were losing weight, highly viremic (plasma virus 0.5 to 3×10^6 copies of SIV RNA/ml by NASBA), and developing pancytopenia. […] In contrast, most untreated animals died by this period. Though the limitation of animal number precludes strong conclusions related to survival.
Far more impressive were experiments performed soon after infection (3 weeks). In these experiments, crude urinary preparations containing MA, but not crude fractions lacking MA, were inoculated subcutaneously. Using a 10^4.5 TCID50 of cell free SIVmac 251, the characteristic rise in SIV p27, reduction of CD4+ T-cells, and weight loss, which occurred in the untreated animals, was prevented in MA treated animals. The untreated animals died before 6 mos. […] However, stopping therapy led to rapid onset of virus production and development of AIDS-like disease.

The test system of data set [2] is SIVMAC 251. The data set is described as follows: SIV infection of rhesus macaque PBMCs (p27). Type of data set: cell-based. How it is done: One hour later the various polypeptides were added once.
The nature of data set [3]: Lethal dose taxol in Sprague-Dawley rats. It counts as in vivo. The procedure:
Sprague-Dawley rats were given taxol in large lethal doses, 4.5 mg in one I.P. inoculation. […] Bone marrow suppression can also be a side effect of the clinical use of taxol.^179 As in the radiation experiments, either MA, pMA, MAS1, or various polypeptide controls were given subcutaneously only in two doses 24 and 48 hrs before taxol treatment or were given 3×/week for 4 weeks. […]

Data set [4] can be described thus: Toxicity in animal studies. It counts as in vivo, rats, mice. The settings on record: incl. rhesus macaques 0.2 mg/kg for several months. How it is done:
(§1) These cells included human, primate, and rodent bone marrow, PBMCs, and human CD4+ T-cells, CD8+ T-cells, CD34+ cells, and macrophages enriched from normal PBMCs, as well as normal human endothelial cells and fibroblasts. Cytotoxicity was assessed by 3H-thymidine incorporation, trypan blue staining, cell numbers, and morphological examination by light and confocal microscopy. Hematopoiesis was not only unimpaired it was promoted. […] These studies were chiefly performed with rats and mice, but also included rhesus macaques treated with 0.2 mg/kg for several months. Like the in vitro results, hematopoiesis was not impaired but instead enhanced.

The test system of the next data set is normal human cells. The data set is described as follows: Effects on normal cells in vitro (confocal microscopy, trypan blue, MTT, 3H-thymidine). It counts as cell-based. How it is done:
More extensive studies of the effects of MA and with truncated synthetic forms of MA (MAS) on a wide range of other human tumor cells were carried out using three-dimensional confocal microscopy. Cells were cultured and then seeded onto gelatinized glass chamber slides and incubated 24 hrs with the various test materials. The slides were then fixed with formalin and treated serially with Triton X-100 (0.01%) for 10 min at 25°, 0.4 ug/ml fluorescein isothiocyanate (FITC)-labeled Phalloidin (Sigma Chem. Co.) at room temperature for 30 min to bind actin, washed with PBS and the DNA stained with Propidium iodide (PI) (0.5 ug·ml) (Sigma Chemical Co.), for 15 min. The stained slides were washed and mounted on slow fade (Molecular Probes, Inc., Eugene, Oreg.) and examined through a dual emission filter XF53 (Omega, Inc., Brattlesboro, Va.) by fluorescent microscopy. In some experiments only DNA staining was performed. In these instances Triton X-100 was not used. The slides were stained with PI and examined for cell morphology and chromatin degradation under 3D confocal microscopy.
Untreated cells (first line) show normal morphology. The confocal microscopy results also verified the specificity of MA in killing tumor cells.
To be certain that this specificity for tumor cells was not simply the consequences of a difference between cycling and non-cycling cells, the following cell-types were also used: proliferating human normal fibroblasts, endothelial cells (HUVEC), and PHA-stimulated lymphocytes. […] In fact, MA actually promoted growth of some of these cells.
as §1

In a further data set the test system is HIV-1. How it is done:
Virus (MOI of 0.001) was added to 10^6 cells in RPMI-1640 with 10% FCS. One hour later the various polypeptides were added once. The cells cultured for 3 days with 5 ug PHA and 20 i.m. of II-2/ml at 37°, after which virus was estimated by determining p24 (HIV-1) or p27 (SIV) (Organon-Teknika).
The effect of native and synthetic MA on HIV-1 infection in vitro was evaluated using PHA and II-2 stimulated primary peripheral blood cells (PBMC), CD4+ T-cells enriched fractions from PBMC, and CD14+ macrophage enriched fractions. Infection was with HIV-1 IIIB (PBMC and CD4+ T-cells), HIV-1 Ba-L (macrophages), and two primary HIV-1 isolates not passaged in any cell line (PBMC).

Data set [5] deals with HIV-1 transgene expression. The data set is described as follows: HIV-1 transgenic rats. Type of data set: in vivo. The text has this:
Because of the extraordinary effects of MA in the mouse modes, we were concerned that the results might be peculiar to the model. Consequently, an HIV-1 transgenic rat model was developed. An additional advantage of the rat model is the larger size of the animals, enabling direct inoculation of MA into the developing pups rather than therapy being indirect (the lactating mother) and limited to the lactation phase. Thus, the transgenic rats can be followed and treated much longer.
Like the transgenic mice, the transgenic rats contain HIV-1 provirus PNNL 4-3, again deleted in gag/pol, and also develop hyperkeratosis. Additionally, they develop tissue fibrosis, inflammatory changes, and some histopathology more similar to human AIDS than in the mouse model, but unlike the HIV-1 transgenic mice the effect is usually not lethal. The changes correlate with expression of HIV-1 proteins. The transgenic rats are more fully described in copending U.S. patent application Ser. No. 09/058,113, by Bryant et al., filed Apr. 9, 1998, entitled “HIV Transgenic Animals and Uses Therefor,” the entire disclosure of which is incorporated herein by reference.
Inoculation (subcutaneous) of a 250-300 gm mother with 300 pmoles of MA for 10 days began after birth of the pups. […]

“VVCNYRDVRFESIRLPGCPRGVNPVVSYAVALSCQ [MA]”: in the data set with SIVMAC 251 [1], the “weight and T-cell number” value was “stabilization and in some instances even increase”. In addition, the “change in SIV titer” value in the data set on SIVMAC 251 [1] (0.2 mg/kg 3 times weekly, 6 mos) is reported as “no significant change”. Further, in the data set on SIVMAC 251 [1] (6 mos), the “deaths in observation period” value is “none of the 3 animals died”. For the same sequence, the “inhibition of SIVMAC 251 infection (qualitative)” value in the data set on SIVMAC 251 [2] is reported as “inhibited”. Further, the “survival of pretreated animals” value in data set [3] (low dose, two doses 24 and 48 hrs before taxol) is on record as “Sixty-percent”. Besides, the “survival maintained to day 80” value in data set [3] (therapy maintained 28 days, high dose (1000 ng)) is recorded as roughly 80%; in data set [3] (therapy maintained 28 days, low dose (100 ng)), “about 60%”. Further, the “survival on day 5” value in data set [3] (therapy maintained 28 days, low or high dose) is reported as 100%. Further, the “toxic side effects grossly or by blood counts” value in data set [4] is “no evident toxic side effects”. The “inhibition of growth or apoptosis of proliferating normal fibroblasts, HUVEC, PHA-stimulated lymphocytes” value in the data set on normal human cells is “no inhibition of growth or evidence of apoptosis”. The “effect on morphology of primary human fibroblasts, cord blood CD34+ cells, CD4+ T cells, macrophages” value in the data set on normal human cells (2000 ng/ml) is reported as “no effect”. For the same sequence, the “cytopathogenicity / toxic side effects on normal cells in vitro” value in the data set with normal human cells (concentration ranges and time periods reported) is “no toxic side effects; also recorded: no cytopathogenicity”. In the data set with normal human cells (up to 10× the effective concentrations), the “cytotoxicity on normal cells at higher concentrations” value is “no evident cytotoxic effects; also recorded: no evident cytotoxicity”. Besides, the “inhibition of primary HIV-1 isolates in PBMCs” value in the data set on HIV-1 was “inhibited replication”. For the same sequence, the IC50 in the data set with HIV-1 (read-out: concentration at which virus production was inhibited 50%, IIIB and Ba-L, p24 in extracellular fluid) was roughly 0.03 µM. In data set [5] (300 pmoles to mother for 10 days, then direct subcutaneous inoculation), the survival and development result was “survived, developed normally”. In addition, the transgene expression result in data set [5] (rat, in vivo) is recorded as “markedly reduced”.

Source of the values: patent US9175077B2, “Nucleic acids encoding biologically active polypeptides derived from a novel early stage pregnancy factor designated maternin (MA)” (NOBEL BIOSCIENCES LLC, priority 1999, dated 2015).
